In patent publication US20140120232A1, “ACID TASTE/ACID SMELL-REDUCING AGENT” (T. HASEGAWA CO., LTD., priority 2011, published 2014):

Experiments:
[1] = Sensory evaluation of yogurt containing the agent; conditions: ten panels
Method: (§1) Sensory evaluation of each drink was carried out by ten panels. […] The piercing aroma characteristic to aldehydes is a characteristic aroma common to every aldehyde and refers to an irritant off-smell giving an image of deteriorated oils and fats, soap, metals, Houttuynia cordata, etc. The judgment of smell was performed by comparing the effects at different concentrations of the acid taste and/or acid smell-reducing agent, and a concentration giving the highest acid taste/acid smell quality was selected.
A yogurt base material as a control was prepared by mixing 100 parts by mass of commercially available plain yogurt (milk non-fat solids: 9.5%, milk fat component: 3.0%) with 0.1 parts by mass of acetic acid (glacial acetic acid: food additive, manufactured by Junsei Chemical Co., Ltd.) with stirring. To the resulting mixture was added (Z,Z)-4,7-tridecadienal as the acid taste and/or acid smell-reducing agent of the present invention in concentrations shown in the following Table 9 to give yogurt containing the agent, followed by sensory evaluation as in Example 1.

[2] = Sensory evaluation of orange juice containing the agent; conditions: ten panels
Method: as §1
To commercially available 100% orange juice was added (Z,Z)-4,7-tridecadienal as the acid taste and/or acid smell-reducing agent of the present invention in concentrations shown in the following Table 12 to give orange juice containing the agent, followed by sensory evaluation as in Example 1.

CCCCC/C=C\C/C=C\CCC=O [(Z,Z)-4,7-tridecadienal]
7: N: number of panels, irritation of acid reduced to give a mild acid taste ([2]; 5 ppt) | N: number of panels, irritation of acid reduced to give a mild acid taste ([2]; 20 ppt) | X: number of panels, acid taste reduced but piercing odor characteristic to aldehydes unpleasant ([2]; 50 ppb)
9: A: number of panels, acid taste/acid smell extreme and cause irritation ([2]; 0.02 ppt)
0: B: number of panels, acid taste/acid smell slightly strong and slightly cause irritation ([1]; 0.005 ppt) | C: number of panels, acid taste/acid smell slightly unpleasant ([1]; 0.005 ppt) | Flavor judgment: number of panels who judged acid taste/acid smell quality the highest ([1]; 0.005 ppt) | N: number of panels, irritation of acid reduced to give a mild acid taste ([1]; 0.005 ppt) | X: number of panels, acid taste reduced but piercing odor characteristic to aldehydes unpleasant ([1]; 0.005 ppt) | C: number of panels, acid taste/acid smell slightly unpleasant ([1]; 0.02 ppt) | Flavor judgment: number of panels who judged acid taste/acid smell quality the highest ([1]; 0.02 ppt) | N: number of panels, irritation of acid reduced to give a mild acid taste ([1]; 0.02 ppt) | X: number of panels, acid taste reduced but piercing odor characteristic to aldehydes unpleasant ([1]; 0.02 ppt) | Flavor judgment: number of panels who judged acid taste/acid smell quality the highest ([1]; 0.1 ppt) | N: number of panels, irritation of acid reduced to give a mild acid taste ([1]; 0.1 ppt) | X: number of panels, acid taste reduced but piercing odor characteristic to aldehydes unpleasant ([1]; 0.1 ppt) | Flavor judgment: number of panels who judged acid taste/acid smell quality the highest ([1]; 0.2 ppt) | N: number of panels, irritation of acid reduced to give a mild acid taste ([1]; 0.2 ppt) | X: number of panels, acid taste reduced but piercing odor characteristic to aldehydes unpleasant ([1]; 0.2 ppt) | X: number of panels, acid taste reduced but piercing odor characteristic to aldehydes unpleasant ([1]; 0.5 ppt) | A: number of panels, acid taste/acid smell extreme and cause irritation ([1]; 1 ppb) | B: number of panels, acid taste/acid smell slightly strong and slightly cause irritation ([1]; 1 ppb) | Flavor judgment: number of panels who judged acid taste/acid smell quality the highest ([1]; 1 ppb) | A: number of panels, acid taste/acid smell extreme and cause irritation ([1]; 1 ppt) | X: number of panels, acid taste reduced but piercing odor characteristic to aldehydes unpleasant ([1]; 1 ppt) | A: number of panels, acid taste/acid smell extreme and cause irritation ([1]; 5 ppt) | B: number of panels, acid taste/acid smell slightly strong and slightly cause irritation ([1]; 5 ppt) | X: number of panels, acid taste reduced but piercing odor characteristic to aldehydes unpleasant ([1]; 5 ppt) | A: number of panels, acid taste/acid smell extreme and cause irritation ([1]; 10 ppb) | B: number of panels, acid taste/acid smell slightly strong and slightly cause irritation ([1]; 10 ppb) | Flavor judgment: number of panels who judged acid taste/acid smell quality the highest ([1]; 10 ppb) | A: number of panels, acid taste/acid smell extreme and cause irritation ([1]; 20 ppt) | B: number of panels, acid taste/acid smell slightly strong and slightly cause irritation ([1]; 20 ppt) | X: number of panels, acid taste reduced but piercing odor characteristic to aldehydes unpleasant ([1]; 20 ppt) | A: number of panels, acid taste/acid smell extreme and cause irritation ([1]; 50 ppb) | B: number of panels, acid taste/acid smell slightly strong and slightly cause irritation ([1]; 50 ppb) | Flavor judgment: number of panels who judged acid taste/acid smell quality the highest ([1]; 50 ppb) | A: number of panels, acid taste/acid smell extreme and cause irritation ([1]; 100 ppt) | Flavor judgment: number of panels who judged acid taste/acid smell quality the highest ([1]; 100 ppt) | A: number of panels, acid taste/acid smell extreme and cause irritation ([1]; 500 ppt) | B: number of panels, acid taste/acid smell slightly strong and slightly cause irritation ([1]; 500 ppt) | Flavor judgment: number of panels who judged acid taste/acid smell quality the highest ([1]; 500 ppt) | B: number of panels, acid taste/acid smell slightly strong and slightly cause irritation ([2]; 0.005 ppt) | C: number of panels, acid taste/acid smell slightly unpleasant ([2]; 0.005 ppt) | Flavor judgment: number of panels who judged acid taste/acid smell quality the highest ([2]; 0.005 ppt) | N: number of panels, irritation of acid reduced to give a mild acid taste ([2]; 0.005 ppt) | X: number of panels, acid taste reduced but piercing odor characteristic to aldehydes unpleasant ([2]; 0.005 ppt) | C: number of panels, acid taste/acid smell slightly unpleasant ([2]; 0.02 ppt) | Flavor judgment: number of panels who judged acid taste/acid smell quality the highest ([2]; 0.02 ppt) | N: number of panels, irritation of acid reduced to give a mild acid taste ([2]; 0.02 ppt) | X: number of panels, acid taste reduced but piercing odor characteristic to aldehydes unpleasant ([2]; 0.02 ppt) | Flavor judgment: number of panels who judged acid taste/acid smell quality the highest ([2]; 0.1 ppt) | N: number of panels, irritation of acid reduced to give a mild acid taste ([2]; 0.1 ppt) | X: number of panels, acid taste reduced but piercing odor characteristic to aldehydes unpleasant ([2]; 0.1 ppt) | Flavor judgment: number of panels who judged acid taste/acid smell quality the highest ([2]; 0.2 ppt) | N: number of panels, irritation of acid reduced to give a mild acid taste ([2]; 0.2 ppt) | X: number of panels, acid taste reduced but piercing odor characteristic to aldehydes unpleasant ([2]; 0.2 ppt) | A: number of panels, acid taste/acid smell extreme and cause irritation ([2]; 0.5 ppt) | X: number of panels, acid taste reduced but piercing odor characteristic to aldehydes unpleasant ([2]; 0.5 ppt) | A: number of panels, acid taste/acid smell extreme and cause irritation ([2]; 1 ppb) | B: number of panels, acid taste/acid smell slightly strong and slightly cause irritation ([2]; 1 ppb) | Flavor judgment: number of panels who judged acid taste/acid smell quality the highest ([2]; 1 ppb) | A: number of panels, acid taste/acid smell extreme and cause irritation ([2]; 1 ppt) | X: number of panels, acid taste reduced but piercing odor characteristic to aldehydes unpleasant ([2]; 1 ppt) | A: number of panels, acid taste/acid smell extreme and cause irritation ([2]; 5 ppt) | X: number of panels, acid taste reduced but piercing odor characteristic to aldehydes unpleasant ([2]; 5 ppt) | A: number of panels, acid taste/acid smell extreme and cause irritation ([2]; 10 ppb) | B: number of panels, acid taste/acid smell slightly strong and slightly cause irritation ([2]; 10 ppb) | Flavor judgment: number of panels who judged acid taste/acid smell quality the highest ([2]; 10 ppb) | A: number of panels, acid taste/acid smell extreme and cause irritation ([2]; 20 ppt) | B: number of panels, acid taste/acid smell slightly strong and slightly cause irritation ([2]; 20 ppt) | X: number of panels, acid taste reduced but piercing odor characteristic to aldehydes unpleasant ([2]; 20 ppt) | A: number of panels, acid taste/acid smell extreme and cause irritation ([2]; 50 ppb) | B: number of panels, acid taste/acid smell slightly strong and slightly cause irritation ([2]; 50 ppb) | Flavor judgment: number of panels who judged acid taste/acid smell quality the highest ([2]; 50 ppb) | A: number of panels, acid taste/acid smell extreme and cause irritation ([2]; 100 ppt) | B: number of panels, acid taste/acid smell slightly strong and slightly cause irritation ([2]; 100 ppt) | Flavor judgment: number of panels who judged acid taste/acid smell quality the highest ([2]; 100 ppt) | A: number of panels, acid taste/acid smell extreme and cause irritation ([2]; 500 ppt) | B: number of panels, acid taste/acid smell slightly strong and slightly cause irritation ([2]; 500 ppt) | Flavor judgment: number of panels who judged acid taste/acid smell quality the highest ([2]; 500 ppt)
5: A: number of panels, acid taste/acid smell extreme and cause irritation ([1]; 0.1 ppt)
10: A: number of panels, acid taste/acid smell extreme and cause irritation ([1]; 0.005 ppt) | A: number of panels, acid taste/acid smell extreme and cause irritation ([2]; 0.005 ppt)
2: B: number of panels, acid taste/acid smell slightly strong and slightly cause irritation ([1]; 0.02 ppt) | C: number of panels, acid taste/acid smell slightly unpleasant ([1]; 0.1 ppt) | C: number of panels, acid taste/acid smell slightly unpleasant ([1]; 0.5 ppt) | Flavor judgment: number of panels who judged acid taste/acid smell quality the highest ([1]; 1 ppt) | C: number of panels, acid taste/acid smell slightly unpleasant ([1]; 5 ppt) | C: number of panels, acid taste/acid smell slightly unpleasant ([1]; 10 ppb) | N: number of panels, irritation of acid reduced to give a mild acid taste ([1]; 10 ppb) | X: number of panels, acid taste reduced but piercing odor characteristic to aldehydes unpleasant ([1]; 100 ppt) | B: number of panels, acid taste/acid smell slightly strong and slightly cause irritation ([2]; 0.2 ppt) | C: number of panels, acid taste/acid smell slightly unpleasant ([2]; 0.2 ppt) | B: number of panels, acid taste/acid smell slightly strong and slightly cause irritation ([2]; 0.5 ppt) | C: number of panels, acid taste/acid smell slightly unpleasant ([2]; 0.5 ppt) | C: number of panels, acid taste/acid smell slightly unpleasant ([2]; 1 ppb) | B: number of panels, acid taste/acid smell slightly strong and slightly cause irritation ([2]; 1 ppt) | C: number of panels, acid taste/acid smell slightly unpleasant ([2]; 1 ppt) | C: number of panels, acid taste/acid smell slightly unpleasant ([2]; 5 ppt) | N: number of panels, irritation of acid reduced to give a mild acid taste ([2]; 50 ppb) | X: number of panels, acid taste reduced but piercing odor characteristic to aldehydes unpleasant ([2]; 100 ppt)
3: B: number of panels, acid taste/acid smell slightly strong and slightly cause irritation ([1]; 0.1 ppt) | B: number of panels, acid taste/acid smell slightly strong and slightly cause irritation ([1]; 0.2 ppt) | C: number of panels, acid taste/acid smell slightly unpleasant ([1]; 0.2 ppt) | C: number of panels, acid taste/acid smell slightly unpleasant ([1]; 1 ppb) | N: number of panels, irritation of acid reduced to give a mild acid taste ([1]; 1 ppb) | C: number of panels, acid taste/acid smell slightly unpleasant ([1]; 1 ppt) | Flavor judgment: number of panels who judged acid taste/acid smell quality the highest ([1]; 20 ppt) | C: number of panels, acid taste/acid smell slightly unpleasant ([1]; 100 ppt) | C: number of panels, acid taste/acid smell slightly unpleasant ([1]; 500 ppt) | X: number of panels, acid taste reduced but piercing odor characteristic to aldehydes unpleasant ([1]; 500 ppt) | N: number of panels, irritation of acid reduced to give a mild acid taste ([2]; 10 ppb) | C: number of panels, acid taste/acid smell slightly unpleasant ([2]; 20 ppt) | C: number of panels, acid taste/acid smell slightly unpleasant ([2]; 500 ppt) | X: number of panels, acid taste reduced but piercing odor characteristic to aldehydes unpleasant ([2]; 500 ppt)
4: A: number of panels, acid taste/acid smell extreme and cause irritation ([1]; 0.2 ppt) | X: number of panels, acid taste reduced but piercing odor characteristic to aldehydes unpleasant ([1]; 1 ppb) | Flavor judgment: number of panels who judged acid taste/acid smell quality the highest ([1]; 5 ppt) | C: number of panels, acid taste/acid smell slightly unpleasant ([1]; 20 ppt) | N: number of panels, irritation of acid reduced to give a mild acid taste ([1]; 100 ppt) | N: number of panels, irritation of acid reduced to give a mild acid taste ([1]; 500 ppt) | N: number of panels, irritation of acid reduced to give a mild acid taste ([2]; 1 ppb) | X: number of panels, acid taste reduced but piercing odor characteristic to aldehydes unpleasant ([2]; 1 ppb) | Flavor judgment: number of panels who judged acid taste/acid smell quality the highest ([2]; 5 ppt) | Flavor judgment: number of panels who judged acid taste/acid smell quality the highest ([2]; 20 ppt) | C: number of panels, acid taste/acid smell slightly unpleasant ([2]; 100 ppt) | N: number of panels, irritation of acid reduced to give a mild acid taste ([2]; 100 ppt) | N: number of panels, irritation of acid reduced to give a mild acid taste ([2]; 500 ppt)
8: A: number of panels, acid taste/acid smell extreme and cause irritation ([1]; 0.02 ppt) | N: number of panels, irritation of acid reduced to give a mild acid taste ([1]; 5 ppt) | X: number of panels, acid taste reduced but piercing odor characteristic to aldehydes unpleasant ([1]; 50 ppb) | A: number of panels, acid taste/acid smell extreme and cause irritation ([2]; 0.1 ppt)
1: A: number of panels, acid taste/acid smell extreme and cause irritation ([1]; 0.5 ppt) | B: number of panels, acid taste/acid smell slightly strong and slightly cause irritation ([1]; 0.5 ppt) | Flavor judgment: number of panels who judged acid taste/acid smell quality the highest ([1]; 0.5 ppt) | B: number of panels, acid taste/acid smell slightly strong and slightly cause irritation ([1]; 1 ppt) | C: number of panels, acid taste/acid smell slightly unpleasant ([1]; 50 ppb) | N: number of panels, irritation of acid reduced to give a mild acid taste ([1]; 50 ppb) | B: number of panels, acid taste/acid smell slightly strong and slightly cause irritation ([1]; 100 ppt) | B: number of panels, acid taste/acid smell slightly strong and slightly cause irritation ([2]; 0.02 ppt) | B: number of panels, acid taste/acid smell slightly strong and slightly cause irritation ([2]; 0.1 ppt) | C: number of panels, acid taste/acid smell slightly unpleasant ([2]; 0.1 ppt) | Flavor judgment: number of panels who judged acid taste/acid smell quality the highest ([2]; 0.5 ppt) | Flavor judgment: number of panels who judged acid taste/acid smell quality the highest ([2]; 1 ppt) | B: number of panels, acid taste/acid smell slightly strong and slightly cause irritation ([2]; 5 ppt) | C: number of panels, acid taste/acid smell slightly unpleasant ([2]; 10 ppb) | C: number of panels, acid taste/acid smell slightly unpleasant ([2]; 50 ppb)
6: N: number of panels, irritation of acid reduced to give a mild acid taste ([1]; 0.5 ppt) | N: number of panels, irritation of acid reduced to give a mild acid taste ([1]; 1 ppt) | X: number of panels, acid taste reduced but piercing odor characteristic to aldehydes unpleasant ([1]; 10 ppb) | N: number of panels, irritation of acid reduced to give a mild acid taste ([1]; 20 ppt) | A: number of panels, acid taste/acid smell extreme and cause irritation ([2]; 0.2 ppt) | N: number of panels, irritation of acid reduced to give a mild acid taste ([2]; 0.5 ppt) | N: number of panels, irritation of acid reduced to give a mild acid taste ([2]; 1 ppt) | X: number of panels, acid taste reduced but piercing odor characteristic to aldehydes unpleasant ([2]; 10 ppb)
